Here are results for three compounds from US5641758A, “Cytarabine derivatives, the preparation and use thereof” (priority 1994, dated 1997).

Data set [1] has as its system HL-60. Briefly: MTT dye reduction cytotoxicity assay, HL-60. It is filed as cell-based. To be noted: Homo sapiens. On the technique in general: Tetrazolium dyes change colour on reduction, which living cells bring about.
For a further data set, the system named is U937. Briefly: MTT dye reduction cytotoxicity assay, U937. The data set is classed as cell-based. To be noted: Homo sapiens, U-937.
Another data set relates to K562. Briefly: MTT dye reduction cytotoxicity assay, K562. To be noted: Homo sapiens. The data set is classed as cell-based.
The test system of data set [2] is CCRF-CEM. In words: MTT dye reduction cytotoxicity assay, CCRF-CEM. The conditions noted are these: Homo sapiens. The data set is classed as cell-based.
The next data set deals with CCRF-CEM (dcK)^-. In words: MTT dye reduction cytotoxicity assay, CCRF-CEM deoxycytidine kinase deficient cell line. To be noted: Homo sapiens. The data set is classed as cell-based.
The test system of data set [3] is L1210 leukemia. In words: Intravenous treatment of L1210 leukemia in BDF1 mice. It is filed as in vivo, murine (female BDF1 mice). The conditions noted are these: i.v.; for T/C, increase of lifespan: including 60d survivors; for Survivors 60 Days: survivors/group.
The test system of data set [4] is L1210 leukemia. In words: Oral treatment of L1210 leukemia in BDF1 mice, therapy on days 1-5. The conditions noted are these: for T/C, increase of lifespan: including 60 day survivors; for Survivors 60 Days: survivors/group. It is filed as in vivo, murine (female BDF1 mice). As to the method:
The anti-tumor activity of the liposomal drug preparations was evaluated with the murine L1210 leukemia model in female BDF1 mice (Rubas et al., Int. J. Cancer, 37, 149-154 (1986)). The L1210 cells (1×10^5) from donor ascites were injected i.v.
Control groups of 5-6 mice received ara-C dissolved in phosphate buffer (PB). The animals were observed daily until death or 60 days. Increase in lifespan of the treated animals (T) was compared to that of the untreated controls (C), expressed as T/C in percentages. Animals surviving 60 days were included in the calculation and considered as being cured.

In data set [5] the test system is HL-60. In words: Human tumor xenograft in nude mice, i.p., leukemia HL-60. It is filed as in vivo. To be noted: HL-60, acute promyelocytic leukemia; i.p. 150 mg/kg/day (MTD), days 1,4,7,10. As to the method: (§1) 6 to 8 week old nude mice of NMRI genetic background were used for all experiments. Tumors were implanted subcutaneously in both flanks of athymic nude mice. Treatment was started as soon as the tumors reached a median diameter of 6 mm, depending on the doubling time between day 12-42. Mice were randomly assigned to treatment groups and control group (5-6 mice per group bearing 6-12 evaluable tumors).
(§2) Tumor size was measured by two-dimensional measurement with calipers. The antitumor effect was evaluated following maximal tumor regression, in non-regressing tumors after 3-4 weeks. Relative tumor volume (RTV) values were calculated for each single tumor by dividing the tumor volume day×by the tumor volume day 0 at the time of randomization. Median RTV values were used for further evaluation.
(§3) Drug therapy was intraperitoneal on day 1,4,7 and 10. The dose of 150 mg/kg/day was considered to be the maximal tolerated dose resulting in a lethality of 14% in tumor-bearing nude mice.
(§4) Tumor growth inhibition was calculated according to relative tumor volume of control minus test divided by the control group. Furthermore the specific growth delay (SGD) was calculated with regard to the tumor doubling time (DT) by doubling time test group minus control divided by the doubling time of the control group.
(In xenograft studies the graft and the host belong to different species.)

Data set [6] relates to CCRF-CEM. Briefly: Human tumor xenograft in nude mice, i.p., leukemia CCRF-CEM. It is filed as in vivo. To be noted: acute lymphatic leukemia, i.p. 150 mg/kg/day (MTD), days 1,4,7,10. Here is the method: as §1, §2, §3, §4
Another data set deals with MAXF 401. Briefly: Human tumor xenograft in nude mice, i.p., mammary carcinoma MAXF 401. The data set is classed as in vivo. The conditions noted are these: MAXF 401, adenocarcinoma; i.p. 150 mg/kg/day (MTD), days 1,4,7,10. Here is the method: as §1, §2, §3, §4
The next data set has as its system PC3M. In words: Human tumor xenograft in nude mice, i.p., prostate carcinoma PC3M. The conditions noted are these: adenocarcinoma, i.p. 150 mg/kg/day (MTD), days 1,4,7,10. It is filed as in vivo. As to the method: as §1, §2, §3, §4
The subject of another data set is LXFS 605. Briefly: Human tumor xenograft in nude mice, i.p., lung carcinoma LXFS 605. It is filed as in vivo. To be noted: LXFS 605, small cell; i.p. 150 mg/kg/day (MTD), days 1,4,7,10. As to the method: as §1, §2, §3, §4
The subject of the next data set is LXFL 529. Briefly: Human tumor xenograft in nude mice, i.p., lung carcinoma LXFL 529. It is filed as in vivo. To be noted: LXFL 529, large cell; i.p. 150 mg/kg/day (MTD), days 1,4,7,10. Here is the method: as §1, §2, §3, §4
The test system of the next data set is MEXF 276. In words: Human tumor xenograft in nude mice, i.p., melanoma MEXF 276. The conditions noted are these: MEXF 276, amelanotic; i.p. 150 mg/kg/day (MTD), days 1,4,7,10. It is filed as in vivo. As to the method: as §1, §2, §3, §4
In a further data set the test system is OVXF 1023. In words: Human tumor xenograft in nude mice, i.p., ovary carcinoma OVXF 1023. It is filed as in vivo. The conditions noted are these: i.p. 150 mg/kg/day (MTD), days 1,4,7,10. Here is the method:
as §1, §2, §3, §4

The nature of data set [7]: Toxicity (lethality, maximal tolerated dose) in tumor-bearing nude mice, i.p. To be noted: mouse, in vivo, ip. As to the method: as §1
Drug therapy was intraperitoneal on day 1,4,7 and 10.
Toxicity was assessed by lethality within 10 days after last therapy and body weight loss. The body weight of the nude mice was measured weekly, for rapidly growing tumor lines, measurements were done twice weekly.

The subject of another data set is cytosine deaminase. To be noted: in the body, in words; cited from earlier work.
The mark [8] stands for this setting: total dose 200 μmol/kg (49 mg/kg).

Read-outs that look alike come from different tables or passages of the source.

As usually defined, the IC50 is the midpoint of a concentration-inhibition curve. In general, MTD refers to the highest dose tested that stayed within the study's limit of toxicity. Higher therefore signals better tolerability. A word on the mortality: it is the share of the test organisms that died. A higher mortality goes with a strong lethal effect.

With `CCCCCCCCCCCCCCCCCCNc1ccn([C@@H]2O[C@H](CO)[C@@H](O)[C@@H]2O)c(=O)n1` [NOAC, 4-(1-octadecylamino)-1-β-D-arabinofuranosyl-2(1H)-pyrimidinone], the IC50 is less than 50 µM in the data set with HL-60 [1] (HL-60, MTT assay, read-out: IC50); less than 100 µM in the data set with U937 (U937, MTT assay, read-out: IC50); less than 200 µM with K562 (K562, MTT assay, read-out: IC50); 50 µM with CCRF-CEM [2] (MTT assay, read-out: IC50); less than 140 µM in the data set on CCRF-CEM (dcK)^-. The “effect compared with ara-C and N^4-hexadecyl-ara-C” value with L1210 leukemia [3] (results of Table 2, in words) is “superiority of NOAC over the prior art compounds, ara-C and N^4 -hexadecyl-ara-C”. Also, the “Survival Time, Mean ± SD” value in the data set on L1210 leukemia [3] (total dose 50 μmol/kg) worked out at 52.1 ± 19.2 days; in the data set with L1210 leukemia [3] (total dose 100 μmol/kg) it was 60 days; in the data set on L1210 leukemia [4] (total dose 1 mmol/kg), 54 ± 15 days; in the data set on L1210 leukemia [4] (total dose 2 mmol/kg), 55 ± 12 days. In addition, the “T/C, increase of lifespan” value in the data set with L1210 leukemia [3] (total dose 50 μmol/kg) is 744%; with L1210 leukemia [3] (total dose 100 μmol/kg), 857%; in the data set on L1210 leukemia [4] (total dose 1 mmol/kg), 673%; in the data set on L1210 leukemia [4] (total dose 2 mmol/kg), 689%. The “Survivors 60 Days” value is reported as 5/6 in the data set with L1210 leukemia [3] (total dose 50 μmol/kg), 6/6 with L1210 leukemia [3] (total dose 100 μmol/kg), 5/6 in the data set on L1210 leukemia [4] (total dose 1 mmol/kg) and 5/6 in the data set with L1210 leukemia [4] (total dose 2 mmol/kg). Further, the “Survival Time, Range” value with L1210 leukemia [3] (total dose 100 μmol/kg) was more than 60 days. Moreover, the Growth inhibition with HL-60 [5] was 97%; in the data set on CCRF-CEM [6], 96%; in the data set on MAXF 401, 85%; in the data set on PC3M, 83%; in the data set with LXFS 605, 73%; in the data set with LXFL 529 it was 79%. Also, the Growth inhibition in the data set with MEXF 276 worked out at 39%; in the data set on OVXF 1023 it was 45%. This compound registered an MTD in data set [7] (days 1,4,7 and 10, tumor-bearing nude mice) of 150 mg/kg/day. Further, the mortality in data set [7] (150 mg/kg/day i.p., tumor-bearing nude mice) was determined as 14%.

Consider `Nc1ccn([C@@H]2O[C@H](CO)[C@@H](O)[C@@H]2O)c(=O)n1` [ara-C, 4-amino-1-β-D-arabinofuranosyl-2(1H)-pyrimidinone, reference compound], for which the IC50 in the data set with HL-60 [1] (HL-60) was more than 200 µM; with U937 it was more than 200 µM; in the data set with K562 (K562), more than 400 µM; with CCRF-CEM [2], less than 1 µM. In addition, the results for the “Survival Time, Mean ± SD” value in the data set with L1210 leukemia [3] (setting [8]) and in the data set with L1210 leukemia [4] (total dose 2 mmol/kg) were 19.8 ± 19.7 days and 13 ± 17 days, respectively. In addition, the “T/C, increase of lifespan” value in the data set on L1210 leukemia [3] (setting [8]) worked out at 282%; in the data set on L1210 leukemia [4] (total dose 2 mmol/kg), 221%. Further, the figures for the “Survivors 60 Days” value with L1210 leukemia [3] (setting [8]) and in the data set with L1210 leukemia [4] (total dose 2 mmol/kg) were 1/6 and 0/6, respectively. In addition, the “Survival Time, Range” value in the data set on L1210 leukemia [4] (total dose 2 mmol/kg) fell in the range of 10 to 52 days. Also, the “deamination by cytosine deaminase” value with cytosine deaminase is “rapidly undergoes deamination”.

With `CCCCCCCCCCCCCCCCNc1ccn([C@@H]2O[C@H](CO)[C@@H](O)[C@@H]2O)c(=O)n1` [N^4 -Hexadecyl-ara-C, 4-(1-hexadecylamino)-1-β-D-arabinofuranosyl-2(1H)-pyrimidinone], in the data set with L1210 leukemia [3] (total dose 50 μmol/kg), the “Survival Time, Mean ± SD” value came to 10.6 days; the “Survival Time, Range” value was 10 to 11 days; the “Survivors 60 Days” value is reported as 0/5. For the same compound, in the data set on L1210 leukemia [3] (total dose 100 μmol/kg), the “Survival Time, Mean ± SD” value is recorded as 12.0 days; the “Survival Time, Range” value fell in the range of 11 to 16 days; the “Survivors 60 Days” value was 0/5.
